The target in one test is mTOR (Homo sapiens, UniProt P42345). The test can be described thus: mTOR LanthaScreen (TR-FRET, phosphorylation of 4EBP1). The class given is biochemical. The settings on record: phosphorylation of GFP-4E-BP1, 10 μM ATP, 90 minutes. In short, it runs like this: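 Final reaction: 400 nM GFP-4E-BP1, 10 μM ATP, 0.15 μg/ml mTOR, compound 50 μM down to 23.84 pM (22-point 1:2 series) in 1% DMSO, buffer with 2 mM DTT; 90 min incubation.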
On the technique in general: Time-resolved FRET reads energy transfer from a long-lived donor to a nearby acceptor.

A further test concerns the target T1, PI3Kα (Homo sapiens, UniProt P42336).
T1 construct: Full length p110 subunits of PI3K α, β and δ, N-terminally labeled with polyHis tag; polyHis (N); made in house; host or cells: Sf9 insect cells (baculovirus)
Description: In vitro PI3K AlphaScreen assay, PI3Kα. Type of test: biochemical. The settings on record: PI(4,5)P2 substrate, 20 minutes at room temperature, read-out: P13Kalpha IC50 um. In a few lines:
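PI3Kα at 1.6 nM (2× stock) with PI(4,5)P2 10 μM and ATP 20 μM (2× stocks) in Tris pH 7, MgCl2, cholate, NaCl, DTT; 20 min at room temperature. Quenched with biotin-IP4/streptavidin-Donor beads, then GST-PIP3-binding protein/anti-GST Acceptor beads, 1.5 h dark; PIP3 formation read as loss of AlphaScreen signal.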

T1 sequence (P42336 whole entry): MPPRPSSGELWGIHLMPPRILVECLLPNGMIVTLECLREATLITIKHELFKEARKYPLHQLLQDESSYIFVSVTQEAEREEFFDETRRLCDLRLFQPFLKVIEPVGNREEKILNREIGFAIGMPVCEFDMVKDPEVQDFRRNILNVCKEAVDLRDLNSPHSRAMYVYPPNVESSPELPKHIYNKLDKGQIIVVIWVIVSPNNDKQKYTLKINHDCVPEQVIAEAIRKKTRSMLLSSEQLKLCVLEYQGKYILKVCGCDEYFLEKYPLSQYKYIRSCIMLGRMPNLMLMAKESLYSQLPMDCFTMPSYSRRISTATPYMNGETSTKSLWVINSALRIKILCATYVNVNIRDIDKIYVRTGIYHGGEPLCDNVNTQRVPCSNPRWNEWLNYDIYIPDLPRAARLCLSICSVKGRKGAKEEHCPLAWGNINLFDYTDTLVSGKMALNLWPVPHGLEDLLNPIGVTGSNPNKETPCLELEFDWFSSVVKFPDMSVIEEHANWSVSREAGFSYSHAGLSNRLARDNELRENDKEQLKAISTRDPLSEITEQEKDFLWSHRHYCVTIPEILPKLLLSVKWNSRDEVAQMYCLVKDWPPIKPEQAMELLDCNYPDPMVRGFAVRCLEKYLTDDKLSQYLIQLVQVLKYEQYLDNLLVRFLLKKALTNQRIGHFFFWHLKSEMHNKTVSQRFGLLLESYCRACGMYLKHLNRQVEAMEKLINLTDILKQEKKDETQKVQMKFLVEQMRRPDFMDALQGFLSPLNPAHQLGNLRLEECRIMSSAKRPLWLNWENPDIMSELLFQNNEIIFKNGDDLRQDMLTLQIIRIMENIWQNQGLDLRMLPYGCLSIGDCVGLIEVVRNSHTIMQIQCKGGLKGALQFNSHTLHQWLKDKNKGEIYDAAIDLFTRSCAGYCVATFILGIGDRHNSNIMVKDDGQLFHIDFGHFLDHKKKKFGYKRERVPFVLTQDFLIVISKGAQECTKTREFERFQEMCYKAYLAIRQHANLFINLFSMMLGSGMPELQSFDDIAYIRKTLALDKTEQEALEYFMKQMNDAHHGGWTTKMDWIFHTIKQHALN
T1 sequence (P27986 whole entry partner): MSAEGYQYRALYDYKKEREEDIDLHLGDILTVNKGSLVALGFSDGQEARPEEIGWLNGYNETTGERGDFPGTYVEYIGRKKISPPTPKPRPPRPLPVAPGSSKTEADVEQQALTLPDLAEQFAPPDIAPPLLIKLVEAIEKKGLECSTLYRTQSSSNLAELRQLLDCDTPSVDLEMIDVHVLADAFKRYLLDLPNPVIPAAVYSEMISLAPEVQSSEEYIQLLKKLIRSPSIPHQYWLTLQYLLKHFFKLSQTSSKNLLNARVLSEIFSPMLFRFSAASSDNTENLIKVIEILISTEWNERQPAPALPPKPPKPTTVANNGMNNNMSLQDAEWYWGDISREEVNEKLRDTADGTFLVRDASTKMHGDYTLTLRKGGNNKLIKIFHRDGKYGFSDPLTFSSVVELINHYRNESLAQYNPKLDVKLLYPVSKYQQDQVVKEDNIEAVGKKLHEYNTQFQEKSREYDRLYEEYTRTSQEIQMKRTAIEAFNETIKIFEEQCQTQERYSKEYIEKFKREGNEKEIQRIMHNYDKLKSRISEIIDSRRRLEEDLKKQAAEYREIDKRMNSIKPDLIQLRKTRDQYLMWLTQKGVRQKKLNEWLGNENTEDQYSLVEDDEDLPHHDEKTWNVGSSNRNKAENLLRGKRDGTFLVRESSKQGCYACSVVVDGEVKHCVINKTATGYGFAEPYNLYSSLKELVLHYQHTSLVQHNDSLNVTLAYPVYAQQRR

The IC50 is the concentration that inhibits the measured activity by half. `CCNC(=O)Nc1ccc(Nc2nc3ccccn3c2-c2cc(N)nc(C)n2)cc1` [Cpd 40, 1-(4-((3-(6-amino-2-methyl-4-pyrimidinyl)imidazo[1,2-a]pyridin-2-yl)amino)phenyl)-3-ethylurea]: the half-inhibitory concentration (IC50) against mTOR was 10 nM; on PI3Kα, 450 nM.
Take `CC(=O)n1ccc(Nc2nc3cccnn3c2-c2cc(N)nc(C)n2)n1` [Cpd 67, N-(1-acetyl-1H-pyrazol-3-yl)-3-(6-amino-2-methyl-4-pyrimidinyl)imidazo[1,2-b]pyridazin-2-amine]: the values for the IC50 on mTOR and on PI3Kα were 10 nM and 750 nM, respectively.
In the case of `Cc1nc(N)cc(-c2c(Nc3ccnn3C(=O)N3CCC3)nc3cccnn23)n1` [Cpd 257, 3-(6-amino-2-methyl-4-pyrimidinyl)-N-(1-(1-azetidinylcarbonyl)-1H-pyrazol-5-yl)imidazo[1,2-b]pyridazin-2-amine], the IC50 was 1690 nM against mTOR and 46500 nM at PI3Kα.
The like results for `Cc1nc(NC(=O)N(C)C)cc(-c2c(Nc3cc[nH]n3)nc3cccnn23)n1` [Cpd 75, 1,1-dimethyl-3-(2-methyl-6-(2-(1H-pyrazol-3-ylamino)imidazo[1,2-b]pyridazin-3-yl)-4-pyrimidinyl)urea] were, in that order, 1420 nM and 42100 nM.
In the case of `CNS(=O)(=O)c1ccc(-c2ccc3nc(Nc4cc[nH]n4)c(-c4nc(C)nc(N)n4)n3c2)cc1` [Cpd 351, 4-(3-(4-amino-6-methyl-1,3,5-triazin-2-yl)-2-(1H-pyrazol-3-ylamino)imidazo[1,2-a]pyridin-6-yl)-N-methylbenzenesulfonamide], the half-maximal inhibitory concentration (IC50) at mTOR is 230 nM; at PI3Kα, 480 nM.
The like results for `Cc1nc(Nc2ccc(N3CCN(C)CC3)nn2)cc(-c2c(Nc3cc[nH]n3)nc3cccnn23)n1` [Cpd 35, 3-(2-methyl-6-((6-(4-methyl-1-piperazinyl)-3-pyridazinyl)amino)-4-pyrimidinyl)-N-1H-pyrazol-3-ylimidazo[1,2-b]pyridazin-2-amine] were, in that order, 10 nM and 110 nM.
For `Cc1nc(NC(=O)C2CC2)cc(-c2c(Nc3cc[nH]n3)nc3cccnn23)n1` [Cpd 120], the values for the IC50 against mTOR and at PI3Kα were 290 nM and 1000 nM, respectively.
On to `Cc1nc(N)cc(-c2c(Nc3ccn(C(=O)Nc4ccccc4C(F)(F)F)n3)nc3cccnn23)n1` [Cpd 239, 3-((3-(6-amino-2-methyl-4-pyrimidinyl)imidazo[1,2-b]pyridazin-2-yl)amino)-N-(2-(trifluoromethyl)phenyl)-1H-pyrazole-1-carboxamide], for which the IC50 against mTOR was found to be 8 nM; on PI3Kα, 3010 nM.
Consider `Cc1nc(N)cc(-c2c(Nc3cc[nH]n3)nc3ccc(OCCN4CCCC4)nn23)n1` [Cpd 73], for which the figures for the IC50 at mTOR and at PI3Kα were 50 nM and 800 nM, respectively.
For the compound `Cc1nc(NCC#N)cc(-c2c(Nc3cc[nH]n3)nc3cccnn23)n1` [Cpd 90], the half-inhibitory concentration (IC50) came out at 30 nM against mTOR and 590 nM at PI3Kα.
Take `Cc1nc(N)cc(-c2c(Nc3ccn(C(=O)Nc4cc(F)cc(F)c4)n3)nc3cccnn23)n1` [Cpd 242, 3-((3-(6-amino-2-methyl-4-pyrimidinyl)imidazo[1,2-b]pyridazin-2-yl)amino)-N-(3,5-difluorophenyl)-1H-pyrazole-1-carboxamide]: the 50% inhibitory concentration (IC50) against mTOR was found to be 80 nM; on PI3Kα, 2320 nM.
`COc1ccc(-c2ccc3nc(Nc4ccn[nH]4)c(-c4nc(C)nc(N)n4)n3c2)cc1CO` [Cpd 286]: the IC50 was 120 nM on mTOR and 130 nM on PI3Kα.
As for `COc1ccc(Nc2cc(-c3c(Nc4cc[nH]n4)nc4cccnn34)nc(C)n2)cc1` [Cpd 33], the IC50 against mTOR was found to be 2840 nM; on PI3Kα it was 660 nM.
Regarding `Cc1nc(Nc2ccc(N3CCOCC3)nn2)cc(-c2c(Nc3cc[nH]n3)nc3ccccn23)n1` [Cpd 49, 3-(2-methyl-6-((6-(4-morpholinyl)-3-pyridazinyl)amino)-4-pyrimidinyl)-N-1H-pyrazol-3-ylimidazo[1,2-a]pyridin-2-amine], the results for the IC50 on mTOR and on PI3Kα were 80 nM and 130 nM, respectively.
As to `Cc1nc(N)cc(-c2c(Nc3ccn(C)n3)nc3ccc(-c4cccc(S(C)(=O)=O)c4)cn23)n1` [Cpd 65, 3-(6-amino-2-methyl-4-pyrimidinyl)-N-(1-methyl-1H-pyrazol-3-yl)-6-(3-(methylsulfonyl)phenyl)imidazo[1,2-a]pyridin-2-amine], the half-inhibitory concentration (IC50) against mTOR was 340 nM; at PI3Kα it was 8690 nM.
In the case of `Cc1nc(N)cc(-c2c(Nc3cc[nH]n3)nc3cccnn23)n1` [Cpd 7, 3-(6-amino-2-methylpyrimidin-4-yl)-N-(1H-pyrazol-3-yl)imidazo[1,2-b]pyridazin-2-amine], the 50% inhibitory concentration (IC50) stood at 11 nM at mTOR and 830 nM on PI3Kα.
Take `Cc1nc(N)nc(-c2c(Nc3ccn(C)n3)nc3ccc(-c4ccc(S(C)(=O)=O)cc4)cn23)n1` [Cpd 354]: the IC50 on mTOR came out at 320 nM; on PI3Kα it was 770 nM.
As to `CNc1nc(C)nc(-c2c(Nc3cc[nH]n3)nc3ccccn23)n1` [Cpd 3, 3-(4-methyl-6-(methylamino)-1,3,5-triazin-2-yl)-N-(1H-pyrazol-3-yl)imidazo[1,2-a]pyridin-2-amine], the IC50 against mTOR was found to be 53 nM; at PI3Kα, 820 nM.
The like results for `CNC(=O)c1ccc(-c2ccc3nc(Nc4cc[nH]n4)c(-c4nc(C)nc(N)n4)n3c2)cc1F` [Cpd 99, 4-(3-(4-amino-6-methyl-1,3,5-triazin-2-yl)-2-(1H-pyrazol-3-ylamino)imidazo[1,2-a]pyridin-6-yl)-2-fluoro-N-methylbenzamide] were, in that order, 4 nM and 110 nM.
For the compound `Cc1nc(N)cc(-n2nc(C(=O)NC3CC3)cc2Nc2cc[nH]n2)n1` [Cpd 16, 5-(1H-pyrazol-5-ylamino)-1-(6-amino-2-methylpyrimidin-4-yl)-N-cyclopropyl-1H-pyrazole-3-carboxamide], the IC50 against mTOR turned out to be 380 nM; at PI3Kα, 2380 nM.
For `Cc1nc(N)nc(-c2c(Nc3cnn(C(=O)Oc4ccccc4)c3)nc3ccccn23)n1` [Cpd 209, phenyl 4-((3-(4-amino-6-methyl-1,3,5-triazin-2-yl)imidazo[1,2-a]pyridin-2-yl)amino)-1H-pyrazole-1-carboxylate] the same measures were 300 nM and 830 nM.

(Values after US20120190666A1, “Heteroaryl Compounds as PIKK Inhibitors” (Amgen Inc., priority 2009, published 2012).)
